Experiments:
Format in all cases: in vivo
[1] = test system: wheat (Triticum aestivum); assay: Test A preemergence soil spray, visual injury rating 0-100; details: 10 days
Outline: (§1)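 Preemergence directed soil spray or postemergence spray (2-10 cm, 1-2 leaf); loam/sand mix; compound in non-phytotoxic solvent + surfactant. Greenhouse, 10 d. Visual injury vs untreated, 0 = none, 100 = complete control.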

kochia (Bassia scoparia) [2] = assay: as above; details: 10 days
Outline: as §1

corn (Zea mays) [3] = assay: as above; details: 10 days
Outline: as §1

[4] = test system: ragweed (common ragweed, Ambrosia artemisiifolia); assay: as above; details: 10 days
Outline: as §1

[5] = test system: barnyardgrass (Echinochloa crus-galli); assay: as above; details: 10 days
Outline: as §1

[6] = test system: palmer (palmer amaranth, palmer pigweed, Amaranthus palmeri); assay: as above; details: 62 g ai/ha, 10 days, 0 = no effect, 100 = complete control
Outline: as §1

[7] = test system: ryegrass, Italian (italian ryegrass, Lolium multiflorum); assay: as above; details: 10 days
Outline: as §1

soybean (Glycine max) [8] = assay: as above; details: 10 days
Outline: as §1

[9] = test system: green foxtail (Setaria viridis); assay: as above; details: 10 days
Outline: as §1

[10] = test system: blackgrass (Alopecurus myosuroides); assay: as above; details: 10 days
Outline: as §1

[11] = test system: oat, wild (wild oat, Avena fatua); assay: as above; details: 10 days
Outline: as §1

[12] = test system: ducksalad (Heteranthera limosa); assay: Test B flooded paddy test, visual plant response rating 0-100; details: 250 g ai/ha, Flood, applied to paddy water, evaluated after 13 days
Outline: (§2)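 Paddy-water application: test compounds went directly into water flooded 3 cm above the soil surface, with plants at 2 leaves. After a 13-day greenhouse period, responses were judged by eye relative to controls; a dash marks an untested entry.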

rice (Oryza sativa) = assay: as above; details: 250 g ai/ha, Flood, applied to paddy water, evaluated after 13 days
Outline: as §2

[13] = test system: barnyardgrass (Echinochloa crusgalli); assay: as above; details: 250 g ai/ha, Flood, applied to paddy water, evaluated after 13 days
Outline: as §2

[14] = test system: sedge, umbrella (small-flower umbrella sedge, Cyperus difformis); assay: as above; details: 250 g ai/ha, Flood, applied to paddy water, evaluated after 13 days
Outline: as §2

[15] = test system: wheat (Triticum aestivum); assay: Test A postemergence application, visual injury rating 0-100
Outline: as §1

kochia (Bassia scoparia) [16] = assay: as above
Outline: as §1

corn (Zea mays) [17] = assay: as above
Outline: as §1

[18] = test system: ragweed (common ragweed, Ambrosia artemisiifolia); assay: as above
Outline: as §1

[19] = test system: barnyardgrass (Echinochloa crus-galli); assay: as above
Outline: as §1

[20] = test system: palmer (palmer amaranth, palmer pigweed, Amaranthus palmeri); assay: as above
Outline: as §1

[21] = test system: ryegrass, Italian (italian ryegrass, Lolium multiflorum); assay: as above
Outline: as §1

[22] = test system: galium (catchweed bedstraw, Galium aparine); assay: as above
Outline: as §1

[23] = test system: horseweed (Erigeron canadensis); assay: as above
Outline: as §1

soybean (Glycine max) [24] = assay: as above
Outline: as §1

[25] = test system: green foxtail (Setaria viridis); assay: as above
Outline: as §1

[26] = test system: blackgrass (Alopecurus myosuroides); assay: as above
Outline: as §1

[27] = test system: oat, wild (wild oat, Avena fatua); assay: as above
Outline: as §1

[28] = 62 g ai/ha, 0 = no effect, 100 = complete control
[29] = 62 g ai/ha, postemergence, 10 days, 0 = no effect, 100 = complete control
[30] = Postemergence, 16 g ai/ha, greenhouse 10 days, 0 no effect, 100 complete control

COC(=O)C1=CCC(NC(=O)C2(C)CN(c3cc(F)cc(Cl)c3)C(=O)O2)C1 (stereo not drawn) [Compound 140]
Wheat plant response rating ([1]; 16 g ai/ha, 0 to 100 scale): 40 | Wheat plant response rating (0-100) [1, 28]: 80 | Kochia plant response rating (kochia (Bassia scoparia) [2]; 16 g ai/ha, 0 to 100 scale): 50 | Kochia plant response rating (0-100) (kochia (Bassia scoparia) [2]; [28]): 100 | Corn plant response rating (corn (Zea mays) [3]; 16 g ai/ha, 0 to 100 scale): 10 | Corn plant response rating (0-100) (corn (Zea mays) [3]; [28]): 60 | Ragweed plant response rating ([4]; 16 g ai/ha, 0 to 100 scale): 0 | Ragweed plant response rating (0-100) [4, 28]: 0 | Barnyardgrass plant response rating ([5]; 16 g ai/ha, 0 to 100 scale): 50 | Barnyardgrass plant response rating (0-100) [5, 28]: 100 | Pigweed, Palmer plant response rating (0-100) [6]: 90 | Ryegrass, Italian plant response rating ([7]; 16 g ai/ha, 0 to 100 scale): 50 | Ryegrass, Italian plant response rating (0-100) [7, 28]: 90 | Soybean plant response rating (soybean (Glycine max) [8]; 16 g ai/ha, 0 to 100 scale): 0 | Soybean plant response rating (0-100) (soybean (Glycine max) [8]; [28]): 80 | Foxtail, Green plant response rating ([9]; 16 g ai/ha, 0 to 100 scale): 80 | Foxtail, Green plant response rating (0-100) [9, 28]: 90 | Blackgrass plant response rating ([10]; 16 g ai/ha, 0 to 100 scale): 0 | Blackgrass plant response rating (0-100) [10, 28]: 50 | Oat, Wild plant response rating ([11]; 16 g ai/ha, 0 to 100 scale): 20 | Oat, Wild plant response rating (0-100) [11, 28]: 20 | Plant response rating, Ducksalad (0 to 100 scale, 0 is no effect and 100 is complete control) [12]: 65 | Plant response rating, Rice (0 to 100 scale, 0 is no effect and 100 is complete control) (rice (Oryza sativa)): 65 | Plant response rating, Barnyardgrass (0 to 100 scale, 0 is no effect and 100 is complete control) [13]: 85 | Plant response rating, Sedge, Umbrella (0 to 100 scale, 0 is no effect and 100 is complete control) [14]: 100 | Wheat plant response rating (0-100) [15, 29]: 90 | Wheat plant response rating (0 to 100 scale) [15, 30]: 80 | Kochia plant response rating (0-100) (kochia (Bassia scoparia) [16]; [29]): 90 | Kochia plant response rating (0 to 100 scale) (kochia (Bassia scoparia) [16]; [30]): 90 | Corn plant response rating (0-100) (corn (Zea mays) [17]; [29]): 100 | Corn plant response rating (0 to 100 scale) (corn (Zea mays) [17]; [30]): 100 | Ragweed plant response rating (0-100) [18, 29]: 70 | Ragweed plant response rating (0 to 100 scale) [18, 30]: 50 | Barnyardgrass plant response rating (0-100) [19, 29]: 100 | Barnyardgrass plant response rating (0 to 100 scale) [19, 30]: 100 | Pigweed, Palmer plant response rating (0-100) [20, 29]: 80 | Pigweed, Palmer plant response rating (0 to 100 scale) [20, 30]: 60 | Ryegrass, Italian plant response rating (0-100) [21, 29]: 80 | Ryegrass, Italian plant response rating (0 to 100 scale) [21, 30]: 60 | Galium plant response rating (0-100) [22, 29]: 90 | Galium plant response rating (0 to 100 scale) [22, 30]: 70 | Horseweed plant response rating (0-100) [23, 29]: 90 | Horseweed plant response rating (0 to 100 scale) [23, 30]: 80 | Soybean plant response rating (0-100) (soybean (Glycine max) [24]; [29]): 70 | Soybean plant response rating (0 to 100 scale) (soybean (Glycine max) [24]; [30]): 70 | Foxtail, Green plant response rating (0-100) [25, 29]: 90 | Foxtail, Green plant response rating (0 to 100 scale) [25, 30]: 90 | Blackgrass plant response rating (0-100) [26, 29]: 100 | Blackgrass plant response rating (0 to 100 scale) [26, 30]: 90 | Oat, Wild plant response rating (0-100) [27, 29]: 90 | Oat, Wild plant response rating (0 to 100 scale) [27, 30]: 60
